Measurements taken from US12110494B2, “Method for biologically producing sugar alcohol from agar” (Korea University Research and Business Foundation, priority 2018, dated 2024).

Tests used:
[1] = Thermal stability (degree of denaturation over time); format: physicochemical; conditions: at 4, 25, 50, and 70° C., FIGS. 11A-11D
Method: To confirm whether L-AHGol and L-ABol, which were produced by fermentation and separated by size exclusion chromatography, are actually stable against heat, L-AHG and AB were experimentally compared. The experiment was performed by measuring the degree of denaturation of each substance over time at 4, 25, 50, and 70° C.

[2] = biological target: T1, AR expressed by a GRE3 gene derived from S. cerevisiae (Saccharomyces cerevisiae, UniProt P38715); assay: Reduction of L-AHG and AB by AR (NADPH decrease at 340 nm); format: biochemical; conditions: substrate 2 mM, 1 mM NADPH, pH 6.0 sodium phosphate buffer, 30° C., FIG. 3B
T1 construct: A target gene GRE3 was amplified from the genomic DNA by PCR; His6 (C); made in house
T1 sequence (P38715 1-327): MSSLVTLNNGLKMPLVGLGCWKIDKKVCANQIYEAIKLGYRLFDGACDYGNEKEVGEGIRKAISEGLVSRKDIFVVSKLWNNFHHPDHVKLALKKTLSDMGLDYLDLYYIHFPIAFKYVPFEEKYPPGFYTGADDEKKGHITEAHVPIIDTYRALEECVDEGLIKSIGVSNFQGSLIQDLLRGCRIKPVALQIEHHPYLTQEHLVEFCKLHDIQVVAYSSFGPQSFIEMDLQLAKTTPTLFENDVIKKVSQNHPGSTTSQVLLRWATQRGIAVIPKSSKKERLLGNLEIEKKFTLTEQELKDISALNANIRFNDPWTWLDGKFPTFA
Method: An enzymatic reaction was performed in a pH 6.0 sodium phosphate buffer at 30° C. 1 mM NADPH was used as a cofactor, and each substrate was allowed to react at 2 mM and a protein concentration of 9.36 nmol.

[3] = test system: Streptococcus mutans; conditions: reported; cited from earlier work
[4] = test system: D452-2-L124; assay: Cell growth inhibition according to AB concentration; format: cell-based, S. cerevisiae
Excerpt: (§1) An experiment for confirming the growth inhibition effect is as follows. […] This is because an increase in AB concentration causes a glucose (carbon source) consumption rate to be decreased (FIG. 6B).

[5] = test system: D452-2-L12; assay: as above; format: cell-based, S. cerevisiae; conditions: 20 g/L glucose
Excerpt: as §1

[6] = test system: parent D452-2; assay: as above; format: cell-based, S. cerevisiae; conditions: 20 g/L glucose
Excerpt: as §1

[7] = biological target: T2, β-galactosidase expressed by LAC4 (Kluyveromyces lactis, UniProt P00723); assay: AB hydrolysis by LAC4 in coenzyme obtained from lysed cells; format: biochemical, K. lactis; conditions: substrate 2 g/L
T2 construct: expressed in transfected cells; host or cells: Saccharomyces cerevisiae D452-2-L124 (crude lysate supernatant)
Method: The AB hydrolysis ability of LAC4 was examined for the constructed strain D452-2-L124 and controls D452-2-L12 and parent D452-2. Since a method of verifying AB hydrolysis is to verify the enzymatic reaction in the cell, a protein, that is, a coenzyme, obtained by growth, collection, and lysis of each cell was used to measure the AB hydrolysis ability. More specifically, each strain was allowed to grow in a YP medium, which is a nutrient broth containing 20 g/L of glucose, at 30° C. and centrifuged in the mid-exponential growth phase at 3,000 g for 10 minutes to collect cells. The collected cells were released with a 20 mM Tris-HCl (pH 7.4) buffer and then lyzed using a sonicator. The lyzed cells were centrifuged at 4° C. and 10,000 g for 10 minutes. The resultant was analyzed by BCA protein concentration quantification to measure the concentration of a coenzyme.
Enzymatic reaction conditions for AB hydrolysis by LAC4 were as follows. AB and lactose as a positive control were used as substrates in the experiment. Each substrate with a concentration of 2 g/L and a coenzyme at 0.5 g/L were reacted in a sodium acetate (pH 6.0) buffer at 30° C. […] This is due to a structural difference between AB and lactose. In this way, it is expected that AB brought into the cell by LAC12 will be hydrolyzed by LAC4.

[8] = test system: parent D452-2; assay: Intracellular AB uptake in minimal medium, control strain; format: cell-based, S. cerevisiae; conditions: minimal medium (Verduyn), without carbon source, FIG. 4D
Method: To confirm the possibility that, when a carbon source that may be consumed by a transporter is provided, AB is consumed together or AB is uptaken into the cell by producing energy from the carbon source, […], and then AB consumption experiments were performed for D452-2-L12 and parent D452-2 as a control. As a result, both when glucose (FIG. 4B) was provided and when galactose (FIG. 4C) was provided, only D452-2-L12 was able to consume AB and produced ABol. […] Therefore, D452-2-L12 was able to consume AB by LAC12.

[9] = test system: D452-2-L12; assay: Intracellular AB uptake by LAC12 in minimal medium; format: cell-based, S. cerevisiae; conditions: minimal medium (Verduyn), without carbon source, FIG. 4A
Method: To confirm the possibility that, […], AB is consumed together or AB is uptaken into the cell by producing energy from the carbon source, […], and then AB consumption experiments were performed for D452-2-L12 and parent D452-2 as a control. […]

[10] = AB 0, 10, 20, 50 g/L, minimal medium, 30° C., FIG. 6A

T2 sequence (P00723 whole entry): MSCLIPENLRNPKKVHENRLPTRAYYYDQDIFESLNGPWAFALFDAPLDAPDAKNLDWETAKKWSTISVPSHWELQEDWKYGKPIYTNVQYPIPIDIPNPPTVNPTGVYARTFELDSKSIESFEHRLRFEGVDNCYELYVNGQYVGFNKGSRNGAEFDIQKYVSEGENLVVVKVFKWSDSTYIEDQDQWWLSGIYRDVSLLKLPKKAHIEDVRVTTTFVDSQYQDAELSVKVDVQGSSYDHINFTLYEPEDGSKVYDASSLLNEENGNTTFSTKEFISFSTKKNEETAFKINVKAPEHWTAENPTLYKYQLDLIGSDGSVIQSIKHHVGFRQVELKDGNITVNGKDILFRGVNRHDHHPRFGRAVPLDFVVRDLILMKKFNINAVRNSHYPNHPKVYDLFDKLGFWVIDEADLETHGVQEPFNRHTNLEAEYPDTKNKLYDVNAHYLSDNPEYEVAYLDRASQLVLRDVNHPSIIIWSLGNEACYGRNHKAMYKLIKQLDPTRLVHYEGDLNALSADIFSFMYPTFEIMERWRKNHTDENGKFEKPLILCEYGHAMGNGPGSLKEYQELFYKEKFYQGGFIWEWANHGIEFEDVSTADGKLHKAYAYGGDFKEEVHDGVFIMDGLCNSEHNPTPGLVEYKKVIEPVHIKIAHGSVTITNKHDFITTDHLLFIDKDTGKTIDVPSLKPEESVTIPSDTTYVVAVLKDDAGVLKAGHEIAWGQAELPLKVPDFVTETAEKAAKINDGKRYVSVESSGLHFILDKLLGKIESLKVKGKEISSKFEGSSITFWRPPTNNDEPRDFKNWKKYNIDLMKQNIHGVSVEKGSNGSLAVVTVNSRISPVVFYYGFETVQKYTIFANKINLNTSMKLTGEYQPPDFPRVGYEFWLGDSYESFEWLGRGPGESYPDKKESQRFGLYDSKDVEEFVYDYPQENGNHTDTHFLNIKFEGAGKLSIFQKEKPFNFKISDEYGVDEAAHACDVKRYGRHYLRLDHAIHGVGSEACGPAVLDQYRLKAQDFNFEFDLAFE

## OC[C@@H](O)[C@@H]1OC[C@H](O)[C@H]1O[C@@H]1O[C@H](CO)[C@H](O)[C@H](O)[C@H]1O [ABol, agarobititol]
[1]
  thermal stability, degree of denaturation over time: very stable without being denatured even at 70 °C

## O=C[C@@H](O)[C@@H]1OC[C@H](O)[C@H]1O [L-AHG, 3,6-anhydro-L-galactose]
[1]
  thermal stability, degree of denaturation over time: denatured over time at 50 °C or more
[2]
  reactivity with AR: then with L-AHG
[3]
  antibacterial effect: antibacterial effect

## OC[C@H]1O[C@@H](O[C@H]2[C@H]3OC[C@@H]2OC(O)[C@H]3O)[C@H](O)[C@@H](O)[C@H]1O (mixture of isomers) [AB, agarobiose]
[1]
  thermal stability, degree of denaturation over time: denatured over time at 50 °C or more
[2]
  reactivity with AR: converted into ABol by AR
[4]; AB 0, 10, 20, 50 g/L, 20 g/L glucose, minimal medium, 30° C., FIG. 6A
  specific growth rate as AB concentration increased: most sharply decreased
[4]; AB concentration 50 g/L, 20 g/L glucose
  growth: did not grow
[4]; each strain showed a tendency similar to the specific growth rate, FIG. 6B
  glucose (carbon source) consumption rate on increase in AB concentration: decreased
[5]; [10]
  specific growth rate as AB concentration increased: decreased as the AB concentration increased
[5]; AB concentration 50 g/L
  growth: did not grow
[6]; [10]
  specific growth rate as AB concentration increased: not affected until the AB concentration was 20 g/L
[6]; AB concentration 50 g/L
  growth: slowly grew afterward
[7]; coenzyme from D452-2-L124 0.5 g/L, sodium acetate pH 6.0, 30° C., FIG. 5
  AB hydrolysis: best hydrolyzed
[7]; coenzymes from strains not expressing LAC4 (D452-2-L12 and parent D452-2), pH 6.0, 30° C.
  AB hydrolysis: hardly hydrolyzed
[7]; coenzyme 0.5 g/L, pH 6.0, 30° C.
  reactivity to β-galactosidase compared with lactose: less reactive
[8]
  AB consumption from medium: did not decrease
[9]
  AB consumption from medium: intracellularly consumed AB

## OC[C@@H](O)[C@@H]1OC[C@H](O)[C@H]1O [L-AHGol, 3,6-anhydro-L-galactitol]
[1]
  thermal stability, degree of denaturation over time: very stable without being denatured even at 70 °C

## O=C[C@H](O)[C@@H](O)[C@H](O)CO [xylose]
[2]
  reactivity with AR: reacted best
